Experimental data: patent US20220305013A1, “STABLE COLLOIDAL DRUG AGGREGATES AND METHODS OF MANUFACTURE AND USE THEREOF” (THE GOVERNING COUNCIL OF THE UNIVERSITY OF TORONTO, priority 2019, published 2022)

Columns and labels:
[1] = Critical aggregation concentration (CAC) by dynamic light scattering in pH-adjusted PBS; assay type: physicochemical; settings: for CAC over a range of pH values: DLS; for critical aggregation concentration (CAC) as a function of pH: pH 7.4 vs 5.5, DLS
Method: CAC values are calculated by preparing colloidal formulations with different concentrations and measuring the scattering intensity (or fluorescence intensity when appropriate). The data is then fit to Equation S4, which was derived from first principles (Equations S1-S3), using the MATLAB curve fitting toolbox to obtain the critical aggregation concentration (CAC) under the conditions used.
Colloids were formulated as described in Example 1. […] 100 μL of each sample was analyzed by DLS and the CAC's calculated as described in Example 1.
Colloids were formulated as described in Example 1. Briefly, solutions of fulvestrant analogue in DMSO were prepared at various concentrations and then diluted 100-fold with PBS at different […]. 100 μL of each sample was analyzed by DLS and the CAC's calculated as described in Example 1.
Colloids were formulated as described in Example 1. Briefly, solutions of siramesine in DMSO were prepared at various concentrations and then diluted 100-fold with pH-adjusted PBS containing stabilizer (where applicable). 100 μL of each sample was analyzed by DLS and the CACs calculated as described in Example 1.

[2] = Drug release from colloids (centrifugation, drug in supernatant by HPLC-MS-MS); assay type: physicochemical; settings: for amount of drug released from co-colloids as a function of pH / drug release over time after acidification to pH 5.5: 12.5 μM lapatinib, 37.5 μM fulvestrant, 0.01 mg/mL PLAC-PEG in PBS
Method: Drug release was measured by centrifuging to pellet the colloids, and then by quantifying the drug in the supernatant. Colloid formulations were centrifuged at 16,000×g for 1 h, followed by withdrawal of 100 μL for quantification. Another 100 μL was withdrawn for DLS analysis to confirm that the colloids had completely settled out of solution. Non-centrifuged colloid suspensions were used as controls.
Drug concentration in samples from drug release and membrane permeability assays was quantified by high pressure liquid chromatography coupled with tandem mass spectrometry (HPLC-MS-MS). Protein was precipitated from samples in serum containing media by spiking with 10 μL of formic acid and adding acetonitrile to a final volume of 1 mL. The precipitated samples were then centrifuged at 16,000×g for 5 min to pellet the proteins. The drug-containing supernatant was then diluted in methanol such that the final drug concentration was less than 100 ng mL^−1. During the final dilution, internal standards (nilotinib for lapatinib and norethindrone for fulvestrant) were added to a final concentration of 25 ng/mL each. Standard curves were prepared in a similar way, by diluting 100 mM solutions of drug in DMSO with methanol to final concentrations of 100, 75, 50, 25, 10, 5, 2.5, and 1 ng mL^−1, each with 25 ng mL^−1 of internal standard.

Zeta potential = assay type: physicochemical; settings: 0.1 mM KCl
Method: Colloids were prepared as described above, but with a single addition of 0.1 mM KCl solution instead of water and buffer. Zeta potential was immediately assessed using a Malvern Nano-ZS (Malvern Panalytical).

[3] = Acid responsiveness of colloids prepared at different pH (spun down, absorbance); assay type: physicochemical; settings: with or without Herceptin as stabilizing agent
Method: The colloids were prepared in different pH conditions, spun down, extracted from the supernatant by organic solvent, dried, reconstituted in DMSO and measured for absorbance.

[4] = Membrane permeability assay; assay type: in vitro ADME; settings: co-colloids 50 μM lapatinib, 150 μM fulvestrant, 0.04 mg/mL PLAC-PEG, 10% FBS, 6 h, 37° C., acidified vs not
Method: Supported artificial lipid membranes were prepared according to the manufacturer instructions (EMD Millipore cat #MATRNPS50). Briefly, a 1% (w/w) solution of egg lecithin in dodecane was prepared by sonicating until the solution was no longer cloudy. A 5 μL aliquot of this phospholipid solution was dropped by pipette into each well of the mesh plate, which wet the membrane and caused it to become translucent. Receiver solution was prepared as 1% (v/v) DMSO and 10% (v/v) FBS in PBS and 340 μL was pipetted into each well of the receiver plate. Lapatinib and fulvestrant solutions ranging from 0 to 5 μM for constructing the standard curve were prepared in identical media and pipetted into separate wells of the receiver plate. Colloids were prepared in PBS containing 10% (v/v) FBS as described above, and 150 μL was pipetted into the mesh plate wells corresponding to the receiver solution in the receiver plate. The mesh plate and receiver plate were gently mated, resulting in the receiver solution wetting the bottom of the phospholipid membrane. […] Finally, the stack was carefully disassembled and a 200 μL sample of receiver and standard curve solutions was withdrawn for drug quantification as described below. […]
Drug concentration in samples from drug release and membrane permeability assays was quantified by high pressure liquid chromatography coupled with tandem mass spectrometry (HPLC-MS-MS). […]

Row | CAC over a range of pH values [1] | critical aggregation concentration (CAC) as a function of pH [1] | amount of drug released from co-colloids as a function of pH [2] | zeta potential (surface charge) (Zeta potential) | acid responsiveness of colloidal drug aggregate [3] | transmembrane diffusion [4] | Compound | drug release over time after acidification to pH 5.5 [2] | ionization state of released lapatinib ([2]; calculated by acid-base theory from release data, low pH)
1 | No change in CAC values | did not dissolve on acidification | unaffected by pH | negative zeta potential | – | – | C[C@]12CC[C@@H]3c4ccc(O)cc4C[C@@H](CCCCCCCCC[S+]([O-])CCCC(F)(F)C(F)(F)F)[C@H]3[C@@H]1CC[C@@H]2O (stereo partly drawn) [fulvestrant] | remained unresponsive to acid | –
2 | – | pH-dependent CACs | – | – | – | – | Clc1ccccc1C(c1ccccc1)(c1ccccc1)n1ccnc1 [clotrimazole] | – | –
3 | increase in CAC values | – | – | – | – | – | Fc1ccc(-n2cc(CCCCN3CCC4(CC3)OCc3ccccc34)c3ccccc32)cc1 [siramesine] | – | –
4 | not pH-dependent | did not dissolve on acidification | – | – | did not demonstrate acid responsiveness | – | CNC(=O)c1cc(Oc2ccc(NC(=O)Nc3ccc(Cl)c(C(F)(F)F)c3)cc2)ccn1 [sorafenib] | – | –
5 | – | pH-dependent CACs | increased with increasing acidity | – | – | reduced when the colloids were acidified | CS(=O)(=O)CCNCc1ccc(-c2ccc3ncnc(Nc4ccc(OCc5cccc(F)c5)c(Cl)c4)c3c2)o1 [lapatinib] | rapidly reached an equilibrium that was sustained for 24 h | Most lapatinib that is released at low pH is ionized
